The source of these data is patent publication US5240929A, “2-heterocyclic-5-hydroxy-1,3-pyrimidines useful as antiinflammatory agents” (Warner-Lambert Company, priority 1992, dated 1993).

One assay addresses T1, 5-lipoxygenase (Rattus norvegicus, UniProt P12527).
T1 construct: host or cells: RBL-1 (rat basophilic leukemia)
T1 sequence (P12527 1-673): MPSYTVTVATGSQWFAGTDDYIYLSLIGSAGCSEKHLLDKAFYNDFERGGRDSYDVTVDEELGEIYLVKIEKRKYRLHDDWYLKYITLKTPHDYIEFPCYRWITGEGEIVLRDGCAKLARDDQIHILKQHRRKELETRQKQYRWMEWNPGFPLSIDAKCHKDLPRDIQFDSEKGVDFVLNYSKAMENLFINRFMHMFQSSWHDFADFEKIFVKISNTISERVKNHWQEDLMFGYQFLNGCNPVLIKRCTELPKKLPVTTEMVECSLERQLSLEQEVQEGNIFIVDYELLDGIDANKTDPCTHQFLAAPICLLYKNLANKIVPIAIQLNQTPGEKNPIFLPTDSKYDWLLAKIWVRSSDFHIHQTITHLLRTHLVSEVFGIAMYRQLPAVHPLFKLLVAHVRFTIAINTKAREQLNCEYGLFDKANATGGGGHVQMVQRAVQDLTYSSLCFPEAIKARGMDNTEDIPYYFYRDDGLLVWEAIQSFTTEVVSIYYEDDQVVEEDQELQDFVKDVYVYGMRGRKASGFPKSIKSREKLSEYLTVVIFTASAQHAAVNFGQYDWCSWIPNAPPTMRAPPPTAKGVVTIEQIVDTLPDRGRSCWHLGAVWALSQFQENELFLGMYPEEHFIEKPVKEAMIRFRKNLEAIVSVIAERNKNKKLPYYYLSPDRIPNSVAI
In words: ARBL whole cell 5-lipoxygenase assay (inhibition of LTB4 formation in RBL-1 cells). The class given is cell-based. The conditions noted are these: RBL-1 whole cells; 50% inhibition of LTB4 formation; calcium ionophore A23187 (5 μM); RIA. As for the experimental part: (§1) ARBL/ARBC WHOLE CELL 5-LIPOXYGENASE AND CYCLOOXYGENASE ASSAYS The rat basophilic leukemia cell line (RBL-1) was obtained from the American Type Culture Collection (Rockville, Md.). Radioimmunoassay (RIA) kits of LTB4 and PGF2α were obtained from Amersham (Arlington Heights, Ill.) and Seragen (Boston, Mass.), respectively. RBL-1 cells are grown in suspension culture in Eagle's minimum essential medium supplemented with 12% fetal bovine serum at 37° C. in an incubator supplied with air-5% carbon dioxide. Cells are harvested by centrifugation. They are washed with cold phosphate buffered saline pH 7.4 (PBS; NaCl, 7.1 g; NaHPO, 1.15 g; KHPO, 0.2 g; and KCl, 0.2 g/l). Cells are finally suspended in PBS containing 1.0 mM calcium at a density of […] cells/ml. Cells are incubated with and without test agent (in DMSO) (1% DMSO is without effect on arachidonic acid metabolism) for ten minutes at room temperature. Calcium ionophore A23187 (5 μM) is added and cells are incubated for seven minutes at 37° C. The reaction is stopped by chilling the tubes on ice for ten minutes. Cells are separated by centrifugation and the supernatant is stored at -20°. Aliquots (100 μL) are analyzed for LTB4 and PGF2α using radioimmunoassay kits as provided by the supplier. […]

Another assay relates to cyclooxygenase. In words: ARBC whole cell cyclooxygenase assay (inhibition of PGF2α formation in RBL-1 cells). The class given is cell-based, rat. As to conditions: RBL-1 whole cells; 50% inhibition of PGF2α formation; calcium ionophore A23187 (5 μM); RIA. As for the experimental part:
as §1

pIC50: −log10 of the molar value.

Take `CON(C)C(=O)c1nc(C(C)(C)C)c(O)c(C(C)(C)C)n1` [Example 1, 4,6-Bis(1,1-dimethylethyl)-5-hydroxy-N-methoxy-N-methyl-2-pyrimidinecarboxamide]: the results for the negative-log IC50 (pIC50) at 5-lipoxygenase and in the assay with cyclooxygenase were 5.93 and 5.87, respectively.
